US20130040882A1, “USE OF FIBROBLAST GROWTH FACTOR FRAGMENTS” (NOVARTIS AG, priority 2003, published 2013)

Test system: selected transcripts
Assay: Salmon calcitonin/PTS893 monkey study: real-time PCR of selected transcripts
Type: in vivo, cynomolgus monkeys (Macaca fascicularis)
Details: normalized to β-actin
From the text: Based on the DNA microarray data a set of transcripts was chosen for quantitative analysis by real time-PCR(RT-PCR).
Briefly, the method exploits the SyBr Green dye which intercalates into double stranded DNA. Accumulation of PCR products is detected directly by monitoring the increase in fluorescence of the SyBr Green dye. Reactions are characterised by the point in time during cycling when amplification of a PCR product is first detected rather than the amount of PCR product accumulated after a fixed number of cycles. The higher the starting copy number of nucleic acid target, the sooner a significant increase in fluorescence is observed.
From each RNA sample, cDNA was made using an Applied Biosystem kit (Applied Biosystems # N808-0234) following the recommendation of the manufacturer. The PCR mixture was prepared using the SyBr Green Universal PCR Master Mix (Applied Biosystems #4309155) as follows: 5 μl cDNA template, 400 nM of each primer, 0.2 mM deoxynucleotide triphosphates, 1 mM MgC12 and 0.5 U Taq DNA polymerase, 5 μl SyBr Green PCR buffer and RNase free water up to a final volume of 50 μl. The PCR was performed using the ABI Prism 7700 Sequence Detection System, after a step at 95° C. for 10 min, the step-cycle program was performed for a total of 40 cycles as follows: 95° C. for 30 s, 60° C. for 1 min. A negative control was included: PCR reaction mixture with water in place of the cDNA sample.
The initial template concentration was determined based on the threshold cycle. […] Quantification was performed by calculating the unknown target concentration relative to an absolute standard and by normalizing to a validated endogenous control such as a housekeeping gene (β-actin). Results are presented as percentage of control, once the ratio between the numbers of molecule for the gene of interest divided by the number of molecule for beta-actin has been calculated.
Based on the DNA microarray data the following set of transcripts was chosen for quantitative analysis by RT-PCR: adhesion receptor CD44, angiopoietin, bone morphogenetic protein 5, carbonic anhydrase II, cartilage oligomeric matrix protein, cathepsin K, osteopontin, pre-pro-alpha-2 type I collagen, Spi-B and Y-box binding protein.

Leu8, Asp10, Lysll, A1a16, G1n18, Thr33, A1a34 human PTH 1-34 [PTS893, Leu8, Asp10, Lysll, A1a16, G1n18, Thr33, A1a34 human PTH 1-34 [hPTH(1-34)]]
Real Time PCR Treatment Effect: Y-box binding protein (bone) (36140_at) (bone): +26 % respect to control
Real Time PCR Treatment Effect: Spi-B (35883_at): −18 % respect to control
Real Time PCR Treatment Effect: adhesion receptor CD44 (1372_at): No change
Real Time PCR Treatment Effect: angiopoietin-1 (1929_at): No change
Real Time PCR Treatment Effect: bone morphogenetic protein 5 (1831_at): +18 % respect to control
Real Time PCR Treatment Effect: carbonic anhydrase II (40095_at): No change
Real Time PCR Treatment Effect: cartilage oligomeric matrix protein (40161_at): No change
Real Time PCR Treatment Effect: cathepsin K (128_at): No change
Real Time PCR Treatment Effect: osteopontin (2092_s_at): No change
Real Time PCR Treatment Effect: pre-pro-alpha-2 type I collagen (32306_g_at): +62 % respect to control
